Experimental data as given in patent US20040208919A1, “Vaccination against prion diseases” (priority 2002, published 2004).
“And” between values parts separate entries of the source, which are not always exact repeats. Equal values may be shown once.

Tested on: primary rat hippocampal neurons
Type: cell-based

Row | Sequence | Neuronal death, mode and dose dependence | Neurotoxicity compared with the other synthetic PrP fragments | Cell death %
1 | KTNMKHMAGAAAAGAVVGGLG [PrP 106-126] | occurred by apoptosis in a dose dependent manner | most neurotoxic fragment | –
2 | NGAKALMGGHGATKVMVGAAA [PrP 106-126 scrambled, reference compound] | – | – | 3 ± 2% and 8 ± 3%
3 | WGQGGGTHSQWNKPSKPK [PrP 89-106] | – | – | 5 ± 2% and 2 ± 6%
4 | WGQPHGGG [PrP 57-64] | – | – | 0 ± 5% and 3 ± 4%
